Laboratory results taken from the supplement of paper PMC10307832.

Columns and labels:
Experiment in all cases: relative viability (nuclei count vs DMSO), 5 days (fraction); higher = more cells survive
Doramapimod + Foretinib = compound: Cc1ccc(-n2nc(C(C)(C)C)cc2NC(=O)Nc2ccc(OCCN3CCOCC3)c3ccccc23)cc1 [Doramapimod] + COc1cc2c(Oc3ccc(NC(=O)C4(C(=O)Nc5ccc(F)cc5)CC4)cc3F)ccnc2cc1OCCCN1CCOCC1 [Foretinib] (partner 0.25 µM)
Method in brief: (§1)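 Lung cancer cell lines in 1536-well plates got either a single drug or a fixed anchor-drug dose together with five library-drug doses (not always all listed) in √10 steps, by pin tool, on the day after seeding. Nuclei were counted after 5 days, and relative viability is the treated-to-vehicle ratio of nuclei counts. Values are medians of duplicate plates.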

Doramapimod + Luminespib = compound: Cc1ccc(-n2nc(C(C)(C)C)cc2NC(=O)Nc2ccc(OCCN3CCOCC3)c3ccccc23)cc1 [Doramapimod] + CCNC(=O)c1noc(-c2cc(C(C)C)c(O)cc2O)c1-c1ccc(CN2CCOCC2)cc1 [Luminespib] (partner 0.01 µM)
Method in brief: as §1

RAF265 + AZD7762 = compound: Cn1c(Nc2ccc(C(F)(F)F)cc2)nc2cc(Oc3ccnc(-c4ncc(C(F)(F)F)[nH]4)c3)ccc21 [RAF265] + NC(=O)Nc1cc(-c2cccc(F)c2)sc1C(=O)N[C@H]1CCCNC1 [AZD7762] (partner 0.2 µM)
Method in brief: as §1

IPA-3 + Foretinib = compound: C1=CC=C2C(=C1)C=CC(=C2SSC3=C(C=CC4=CC=CC=C43)O)O [IPA-3] + COc1cc2c(Oc3ccc(NC(=O)C4(C(=O)Nc5ccc(F)cc5)CC4)cc3F)ccnc2cc1OCCCN1CCOCC1 [Foretinib] (partner 0.25 µM)
Method in brief: as §1

| Cell Line | relative viability (Doramapimod + Foretinib; first compound 0.02 µM) | relative viability (Doramapimod + Foretinib; first compound 0.06325 µM) | relative viability (Doramapimod + Foretinib; first compound 0.2 µM) | relative viability (Doramapimod + Foretinib; first compound 0.6325 µM) | relative viability (Doramapimod + Foretinib; first compound 2 µM) | relative viability (Doramapimod + Luminespib; first compound 0.02 µM) | relative viability (Doramapimod + Luminespib; first compound 0.06325 µM) | relative viability (Doramapimod + Luminespib; first compound 0.2 µM) | relative viability (Doramapimod + Luminespib; first compound 0.6325 µM) | relative viability (Doramapimod + Luminespib; first compound 2 µM) | relative viability (RAF265 + AZD7762; first compound 0.01 µM) | relative viability (RAF265 + AZD7762; first compound 0.03162 µM) | relative viability (RAF265 + AZD7762; first compound 0.1 µM) | relative viability (RAF265 + AZD7762; first compound 0.3162 µM) | relative viability (RAF265 + AZD7762; first compound 1 µM) | relative viability (IPA-3 + Foretinib; first compound 0.2 µM) | relative viability (IPA-3 + Foretinib; first compound 0.6325 µM) | relative viability (IPA-3 + Foretinib; first compound 2 µM) | relative viability (IPA-3 + Foretinib; first compound 6.325 µM) | relative viability (IPA-3 + Foretinib; first compound 20 µM) |
| --- | --- | --- | --- | --- | --- | --- | --- | --- | --- | --- | --- | --- | --- | --- | --- | --- | --- | --- | --- | --- |
| EKVX | 0.831 | 0.829 | 0.789 | 0.746 | 0.764 | 0.92 | 0.868 | 0.906 | 0.914 | 0.77 | 0.685 | 0.777 | 0.706 | 0.412 | 0.298 | 0.775 | 0.668 | 0.895 | 0.893 | 1.21 |
| NCI-H1651 | 0.912 | 0.777 | 0.841 | 0.793 | 0.869 | 0.76 | 0.863 | 0.87 | 0.93 | 0.758 | 0.508 | 0.497 | 0.401 | 0.406 | 0.365 | 0.981 | 0.717 | 0.967 | 0.952 | 1.04 |
| HCC-15 | 1.07 | 1.01 | 0.964 |  | 0.953 | 0.472 | 0.425 | 0.444 |  | 0.201 | 1.31 | 1.17 | 1.12 | 1.27 | 1.18 | 1.11 | 0.965 | 1.03 | 1.01 | 1.02 |
| LCLC-103H | 0.627 | 0.691 | 0.598 | 0.857 | 0.73 | 0.927 | 0.99 | 0.884 | 1.08 | 0.925 | 0.815 | 0.911 | 0.767 | 0.727 | 0.598 | 0.908 | 0.862 | 0.756 | 0.725 | 0.775 |
| NCI-H23 | 0.952 | 1.05 | 0.947 | 1.05 | 0.95 | 0.23 | 0.204 | 0.218 | 0.209 | 0.221 | 0.309 | 0.263 | 0.228 | 0.182 | 0.169 | 1.03 | 1.02 | 0.971 | 1 | 1.17 |
| NCI-H596 | 0.907 | 0.766 | 1.01 | 0.782 | 0.855 | 0.927 | 1 | 1 | 0.994 | 0.842 | 1.29 | 1.08 | 1.03 | 0.877 | 0.548 | 0.691 | 0.945 | 0.923 | 0.881 | 1.06 |
| NCI-H460 | 1.08 | 1.04 | 1.02 | 1.17 | 0.973 | 0.032 | 0.0205 | 0.0311 | 0.0341 | 0.0277 | 0.586 | 0.666 | 0.775 | 0.598 | 0.38 | 1.12 | 0.924 | 0.851 | 0.929 | 0.931 |
| NCI-H2085 | 1.03 | 0.85 | 0.707 | 1.21 | 1.03 | 0.411 | 0.601 | 0.409 | 0.46 | 0.463 | 1.06 | 0.879 | 1.05 | 1.1 | 0.857 | 0.948 | 0.824 | 1.28 | 0.949 | 1.04 |
| NCI-H2342 | 0.91 | 1.03 | 0.975 | 1.29 | 1.13 | 0.67 | 0.749 | 0.701 | 0.852 | 0.725 | 0.507 | 0.558 | 0.539 | 0.498 | 0.474 | 1.11 | 1.04 | 1.15 | 1.19 | 1.3 |
| PC-14 | 0.939 | 1.03 | 0.997 | 1.13 | 0.91 | 0.146 | 0.196 | 0.18 | 0.159 | 0.152 | 0.424 | 0.451 | 0.369 |  | 0.378 | 1.07 | 0.938 | 0.941 | 0.874 | 1.07 |
| HOP-62 | 1.15 | 1.05 | 1.11 | 1.14 | 1.08 | 0.957 | 1.04 | 1.07 | 0.931 | 0.797 | 0.572 | 0.553 | 0.462 | 0.482 | 0.422 | 1.28 | 1.04 | 1.21 | 1.09 | 1.19 |
| NCI-H2087 | 0.996 | 1.14 | 0.993 | 1.18 | 1.24 | 0.174 | 0.215 | 0.195 | 0.158 | 0.234 | 1.19 | 1.18 | 1.02 | 1.2 | 1.12 | 1.26 | 1.12 | 1.05 | 1.03 | 1.18 |
| NCI-H1793 | 0.618 | 0.752 | 0.822 | 0.865 | 0.597 | 0.157 | 0.174 | 0.144 | 0.23 | 0.161 | 0.413 | 0.572 | 0.332 | 0.197 | 0.132 | 0.918 | 0.67 | 0.656 | 0.757 | 1.05 |
| PC-3 [JPC-3] | 1.14 | 1.11 | 1.15 | 1.23 | 1.1 | 0.736 | 0.656 | 0.694 | 0.768 | 0.671 | 0.879 | 0.771 | 0.742 | 0.445 | 0.479 | 1.06 | 0.975 | 1.04 | 0.965 | 1 |
| H3255 | 0.844 | 0.883 | 0.945 | 0.637 | 0.726 | 0.947 | 0.844 | 0.843 | 0.686 | 0.697 | 0.931 | 1.01 | 0.877 |  | 0.623 | 0.861 | 0.865 | 0.876 | 0.832 | 0.861 |
| EMC-BAC-2 | 0.999 | 1.02 | 1.09 | 1.23 | 1 | 1.28 | 1.17 | 1.12 | 1.22 | 1.15 | 1.09 | 1.03 | 0.675 | 0.724 | 0.486 | 1.07 | 1 | 1.07 | 1.01 | 1.22 |
